Assay results as given in patent publication US4339535A, “Process for preparing antibiotic EM 4940” (E. R. Squibb & Sons, Inc., priority 1980, dated 1982).
In brackets after ≈: the same amount, converted by molar mass. Where two headings read alike, the source gives them in different places.

How the values were obtained:
Propionibacterium acnes = test: MIC anaerobic screen; type: cell-based; details: Cutibacterium acnes, Table IV, strain 4020, read-out: Minimum Inhibitory Concentration
Klebsiella penumoniae = test: MIC aerobic screen, H-59 synthetic agar; details: read-out: Minimum Inhibitory Concentration
E. floccosum = test: MIC against dermatophytes; type: cell-based; details: Epidermophyton floccosum; Table VI; strain 9185; 26° C., 48 hours; read-out: Minimum Inhibitory Concentration
Peptococcus variabilis = test: MIC anaerobic screen; type: cell-based; details: Table IV, strain 11,264, read-out: Minimum Inhibitory Concentration
Pseudomonas aeruginosa = test: MIC aerobic screen, H-59 synthetic agar
Acholeplasma laidlawii = test: MIC against mycoplasmas; type: cell-based; details: Table VIII, 48 hours, 37° C., phenol red color change
Serratia marcescens = test: MIC aerobic screen, H-59 synthetic agar
[1] = tested on: Acinetobacter calcoaceticus; test: MIC aerobic screen, BA-2 agar; details: Acinetobacter calcoaceticus, strain 8333
Klebsiella aerogenes = test: MIC aerobic screen, BA-2 agar; details: Klebsiella aerogenes, strain 10,436
Klebsiella pneumoniae = test: MIC aerobic screen, BA-2 agar
Salmonella typhimurium = test: MIC aerobic screen, BA-2 agar
Mycoplasma mycoides = test: microbe, parasite or virus in culture; type: cell-based; details: 48 h
Trichomonas vaginalis = test: MIC against Trichomonas vaginalis; type: cell-based; details: Table VII, strain 8560, anaerobic, 37° C., 40 hours, read-out: Minimum Inhibitory Concentration
Bifidobacterium dentium = test: MIC anaerobic screen; type: cell-based; details: Table IV, strain 11,260, read-out: Minimum Inhibitory Concentration
M. canis = test: MIC against dermatophytes; type: cell-based; details: Microsporum canis; Table VI; strain 9237; 26° C., 48 hours; read-out: Minimum Inhibitory Concentration
solubility = type: physicochemical
Streptococcus faecalis = test: MIC aerobic screen, BA-2 agar; details: Enterococcus faecalis, strain 9011
Clostridium septicum = test: MIC anaerobic screen; type: cell-based; details: Table IV, strain 1780, read-out: Minimum Inhibitory Concentration
Procedure: (§1) The antibiotic is prepared as described above for the aerobic screen.
(§2) All organisms are maintained in a tube of chopped meat broth with glucose supplied by Scott Laboratories in Rhode Island. Two days prior to running the test 0.1 ml of the maintained culture is transferred to a fresh tube of chopped meat broth, and the tube is incubated at 37° C. for 48 hours. After 48 hours incubation each culture is assumed to have grown to 1×10^8 CFU/ml.
(§3) The organisms are stamped onto antibiotic containing agar plates (Mueller Hinton Agar BBL+5% whole sheep blood+0.2% lysed sheep blood) to give an inoculum level of 10^5 CFU.
(§4) After stamping, the plates are placed in an anaerobic gas pack system (BBL) and incubated at 37° C. for 18 hours.

Clostridium histolyticum = test: MIC anaerobic screen; type: cell-based; details: Hathewaya histolytica, Table IV, strain 8572, read-out: Minimum Inhibitory Concentration
Procedure: as §1, §2, §3, §4

Eubacterium lentum = test: MIC anaerobic screen; type: cell-based; details: Eggerthella lenta, Table IV, strain 11,261, read-out: Minimum Inhibitory Concentration
Procedure: as §1, §2, §3, §4

[2] = tested on: Fusobacterium necrophorum; test: MIC anaerobic screen; type: cell-based; details: Table IV, strain 11,338, read-out: Minimum Inhibitory Concentration
Procedure: as §1, §2, §3, §4

Clostridium sporogenes = test: MIC anaerobic screen; type: cell-based; details: Table IV, strain 2372, read-out: Minimum Inhibitory Concentration
Procedure: as §1, §2, §3, §4

Enterobacter cloacae = test: MIC aerobic screen, H-59 synthetic agar; details: read-out: Minimum Inhibitory Concentration
[3] = tested on: gram-positive and gram-negative bacteria, yeasts, fungi, acholeplasma, and the protozoan Trichomonas vaginalis; test: biological activity, general statement; details: A form versus B form
Bacteroides fragilis = test: MIC anaerobic screen; type: cell-based
Escherichia coli = test: MIC aerobic screen, BA-2 agar; details: Escherichia coli
Shigella sonnei = test: MIC aerobic screen, BA-2 agar; type: cell-based; details: strain 8449
Proteus morganii = test: MIC aerobic screen, BA-2 agar; details: Morganella morganii, strain 9774
[4] = read-out: Minimum Inhibitory Concentration, Table I, BA-2 agar
[5] = read-out: Minimum Inhibitory Concentration, Table II, additional tests

CC1(O)CC(C(N)=O)N=C1c1ncccc1O (stereo not drawn) [EM4940A, 2,4-trans-3,4-dihydro-4-hydroxy-5-(3-hydroxy-2-pyridinyl)-4-methyl-2H-pyrrole-2-carboxamide]
MIC (Propionibacterium acnes): 50 µg/mL (≈ 213 µM) | MIC (Klebsiella penumoniae): 50 µg/mL (≈ 213 µM) | MIC (E. floccosum): > 100 µg/mL | MIC (Peptococcus variabilis): 50 µg/mL (≈ 213 µM) | MIC (Pseudomonas aeruginosa; read-out: Minimum Inhibitory Concentration, Table III, H-59 agar, strain 8754): > 100 µg/mL | MIC (Pseudomonas aeruginosa; read-out: Minimum Inhibitory Concentration, Table III, H-59 agar, strain 9330): 50 µg/mL (≈ 213 µM) | MIC (Pseudomonas aeruginosa; read-out: Minimum Inhibitory Concentration, Table III, H-59 agar, strain 9545): 25 µg/mL (≈ 106 µM) | MIC (Acholeplasma laidlawii): 100 µg/mL (≈ 425 µM) | MIC (Serratia marcescens; Serratia marcescens, read-out: Minimum Inhibitory Concentration): 100 µg/mL (≈ 425 µM) | Minimum Inhibitory Concentration (Serratia marcescens; Table III, H-59 agar, strain 11,111): 100.0 µg/mL | MIC [1, 4]: 50 µg/mL (≈ 213 µM) | MIC [1, 5]: 100 µg/mL (≈ 425 µM) | MIC (Klebsiella aerogenes; [4]): 100 µg/mL (≈ 425 µM) | MIC (Klebsiella aerogenes; [5]): 50 µg/mL (≈ 213 µM) | MIC (Klebsiella pneumoniae; Klebsiella pneumoniae, read-out: Minimum Inhibitory Concentration): 50 µg/mL (≈ 213 µM) | Minimum Inhibitory Concentration (Klebsiella pneumoniae; Table II, additional tests, strain 11,066): 50 µg/mL | MIC (Salmonella typhimurium; Salmonella enterica, TYPHIMURIUM, read-out: Minimum Inhibitory Concentration): 50 µg/mL (≈ 213 µM) | Minimum Inhibitory Concentration (Salmonella typhimurium; Table II, additional tests, strain 9201): 50 µg/mL | MIC (Mycoplasma mycoides): > 100 µg/mL | MIC (Trichomonas vaginalis): 12.5 µg/mL (≈ 53.1 µM) | MIC (Bifidobacterium dentium): > 100 µg/mL | MIC (M. canis): 100 µg/mL (≈ 425 µM) | solubility (solubility; hexane): Insoluble | solubility (solubility; methanol, ethanol, ethyl acetate, acetone and chloroform): soluble | solubility (solubility; water): Insoluble | MIC (Streptococcus faecalis; [4]): > 100 µg/mL | MIC (Streptococcus faecalis; [5]): > 200 µg/mL | MIC (Clostridium septicum): 12.5 µg/mL (≈ 53.1 µM) | MIC (Clostridium histolyticum): 12.5 µg/mL (≈ 53.1 µM) | MIC (Eubacterium lentum): 12.5 µg/mL (≈ 53.1 µM) | MIC [2]: 12.5 µg/mL (≈ 53.1 µM) | MIC (Clostridium sporogenes): 12.5 µg/mL (≈ 53.1 µM) | MIC (Enterobacter cloacae): 100 µg/mL (≈ 425 µM) | biological activity of A form relative to B form [3]: more active than the B form | MIC (Bacteroides fragilis; Table IV, anaerobic, strain 9005, read-out: Minimum Inhibitory Concentration): 50 µg/mL (≈ 213 µM) | MIC (Bacteroides fragilis; Table IV, anaerobic, strain 10,277, read-out: Minimum Inhibitory Concentration): 50 µg/mL (≈ 213 µM) | MIC (Bacteroides fragilis; Table IV, anaerobic, strain 10,278, read-out: Minimum Inhibitory Concentration): 50 µg/mL (≈ 213 µM) | MIC (Bacteroides fragilis; Table IV, anaerobic, strain 10,279, read-out: Minimum Inhibitory Concentration): 50 µg/mL (≈ 213 µM) | MIC (Bacteroides fragilis; Table IV, anaerobic, strain 10,281, read-out: Minimum Inhibitory Concentration): 50 µg/mL (≈ 213 µM) | MIC (Bacteroides fragilis; Table IV, anaerobic, strain 11,085, read-out: Minimum Inhibitory Concentration): 100 µg/mL (≈ 425 µM) | MIC (Bacteroides fragilis; Table IV, anaerobic, strain 11,086, read-out: Minimum Inhibitory Concentration): 50 µg/mL (≈ 213 µM) | MIC (Bacteroides fragilis; read-out: Minimum Inhibitory Concentration): 12.5 µg/mL (≈ 53.1 µM) | MIC (Escherichia coli; read-out: Minimum Inhibitory Concentration, Table I, BA-2 agar, strain 10,404): 100 µg/mL (≈ 425 µM) | MIC (Escherichia coli; read-out: Minimum Inhibitory Concentration, Table I, BA-2 agar, strain 10,857): 50 µg/mL (≈ 213 µM) | MIC (Escherichia coli; read-out: Minimum Inhibitory Concentration, Table I, BA-2 agar, strain 10,896): 25 µg/mL (≈ 106 µM) | MIC (Escherichia coli; read-out: Minimum Inhibitory Concentration, Table II, additional tests, strain 10,404): 50 µg/mL (≈ 213 µM) | MIC (Escherichia coli; read-out: Minimum Inhibitory Concentration, Table II, additional tests, strain 10,857): 50 µg/mL (≈ 213 µM) | MIC (Shigella sonnei; Shigella sonnei, Table I, BA-2 agar, read-out: Minimum Inhibitory Concentration): 50 µg/mL (≈ 213 µM) | Minimum Inhibitory Concentration (Shigella sonnei; Table II, additional tests): 50 µg/mL | MIC (Proteus morganii; [4]): 50 µg/mL (≈ 213 µM) | MIC (Proteus morganii; [5]): 100 µg/mL (≈ 425 µM)
